Experiments:
[1] = target: T1, GPR6 (Homo sapiens, UniProt P46095); assay: GPR6 antagonist functional cAMP assay (LANCE Ultra cAMP TR-FRET, CHO cells stably expressing GPR6); type: cell-based
T1 construct: expressed in transfected cells; host or cells: CHO cells
In short: (§1)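 10,000 cells/well; KRB buffer + 0.1% BSA + 150 μM Ro 20-1724; cpd 45 min, 37 °C, 0.1% DMSO; TR-FRET cAMP, 665 nm; 4-PL fit, normalized to DMSO (0.1%) and reference (100%) → IC50.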

[2] = target: T2, GPR3 (Homo sapiens, UniProt P46089); assay: GPR3 antagonist functional cAMP assay (LANCE Ultra cAMP TR-FRET, CHO cells stably expressing GPR3); type: cell-based
T2 construct: expressed in transfected cells; host or cells: CHO cells
T2 sequence (P46089 whole entry, species assumed): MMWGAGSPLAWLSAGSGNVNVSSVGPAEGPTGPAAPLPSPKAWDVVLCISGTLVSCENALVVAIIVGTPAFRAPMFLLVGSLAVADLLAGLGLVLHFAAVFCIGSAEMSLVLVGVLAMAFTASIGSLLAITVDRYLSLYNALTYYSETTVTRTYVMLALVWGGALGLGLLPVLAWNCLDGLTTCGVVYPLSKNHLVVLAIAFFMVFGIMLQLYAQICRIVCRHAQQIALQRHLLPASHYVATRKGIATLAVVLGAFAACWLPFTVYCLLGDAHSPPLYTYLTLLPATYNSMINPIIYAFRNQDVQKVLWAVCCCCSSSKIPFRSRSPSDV
In short: as §1

[3] = procedure as described in Example 24
[4] = CHO cells stably expressing GPR6, cAMP assay (Example 24)
[5] = CHO cells stably expressing GPR3, cAMP assay (Example 24)
[6] = CHO cells stably expressing GPR6, cAMP assay
[7] = CHO cells stably expressing GPR3, cAMP assay

T1 sequence (P46095 whole entry): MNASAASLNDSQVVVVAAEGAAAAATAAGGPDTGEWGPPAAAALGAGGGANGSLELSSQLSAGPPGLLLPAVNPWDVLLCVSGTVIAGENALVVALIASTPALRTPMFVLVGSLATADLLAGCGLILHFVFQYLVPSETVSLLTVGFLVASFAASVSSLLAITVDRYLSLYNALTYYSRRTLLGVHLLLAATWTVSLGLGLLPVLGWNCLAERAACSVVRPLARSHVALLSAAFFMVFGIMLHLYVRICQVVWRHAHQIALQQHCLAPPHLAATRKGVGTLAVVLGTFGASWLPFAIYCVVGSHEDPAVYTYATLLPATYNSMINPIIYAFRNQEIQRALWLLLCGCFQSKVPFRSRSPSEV

In the case of `CC(=O)N1CCc2nc(N3CCC(Oc4ccc(F)cc4F)CC3)c(-c3ccn(C(=O)OC(C)(C)C)c3)nc2C1` [Compound 53, tert-butyl 3-{6-acetyl-2-[4-(2,4-difluorophenoxy)piperidin-1-yl]-5H,6H,7H,8H-pyrido[3,4-b]pyrazin-3-yl}-1H-pyrrole-1-carboxylate], the IC50 [1, 3] is reported as 1 to 30 µM and the IC50 [2, 3] is reported as 0.1 to 1 µM.

In the case of `CCn1cc(-c2nc3cnccc3nc2N2CCC(Oc3cc(Cl)ccc3Cl)CC2)cn1` [Compound 288, 4-(2,5-dichlorophenoxy)-1-[3-(1-ethyl-1H-pyrazol-4-yl)pyrido[3,4-b]pyrazin-2-yl]piperidine], the IC50 ([1]; procedure of Example 24) is reported as < 0.1 µM and the IC50 ([2]; procedure of Example 24) is reported as 1 to 30 µM.

With `CC(=O)N1CCc2nc(N3CCC(Oc4ccc(F)cc4F)CC3)c(-c3cccc(-c4cn[nH]c4)n3)nc2C1` [Compound 166, 1-{2-[4-(2,4-difluorophenoxy)piperidin-1-yl]-3-[6-(1H-pyrazol-4-yl)pyridin-2-yl]-5H,6H,7H,8H-pyrido[3,4-b]pyrazin-6-yl}ethan-1-one] the IC50 [1, 4] was 0.1 to 1 µM and the IC50 [2, 5] was 1 to 30 µM.

`CN(C)C(=O)N1CCc2nc(N3CCC(Oc4ccc(F)cc4F)CC3)c(-c3cn[nH]c3)nc2C1` [Compound 187, 2-[4-(2,4-difluorophenoxy)piperidin-1-yl]-N,N-dimethyl-3-(1H-pyrazol-4-yl)-5H,6H,7H,8H-pyrido[3,4-b]pyrazine-6-carboxamide] was tested, and the IC50 [1, 4] was < 0.1 µM and the IC50 [2, 5] was 1 to 30 µM.

For `CC(C)(O)[C@H](O)c1cc2nc(N3CCN(Cc4ccc(F)cc4F)CC3)c(-c3cnn(CF)c3)nc2cn1` (single isomer, unassigned) [Compound 598], the IC50 [1, 6] was 0.1 to 1 µM and the IC50 [2, 7] was 1 to 30 µM.

In the case of `CCn1cc(-c2nc3c(nc2N2CCC(Oc4ccc(F)cc4F)CC2)CCN(C(=O)C2CC(F)(F)CN2C)C3)cn1` (stereo not drawn) [Compound 483, (4,4-difluoro-1-methylpyrrolidin-2-yl)(2-(4-(2,4-difluorophenoxy)piperidin-1-yl)-3-(1-ethyl-1H-pyrazol-4-yl)-7,8-dihydropyrido[3,4-b]pyrazin-6(5H)-yl)methanone], the IC50 [1, 4] is reported as 0.1 to 1 µM and the IC50 [2, 5] is reported as 1 to 30 µM.

`CC(=O)N1CCc2nc(N3CCC(Oc4cc(F)ccc4F)C3)c(-c3cnn(C)c3)nc2C1` (stereo not drawn) [Compound 342, 1-{2-[3-(2,5-difluorophenoxy)pyrrolidin-1-yl]-3-(1-methyl-1H-pyrazol-4-yl)-5H,6H,7H,8H-pyrido[3,4-b]pyrazin-6-yl}ethan-1-one] was tested, and the IC50 ([1]; procedure of Example 24) was 1 to 30 µM and the IC50 ([2]; procedure of Example 24) was 0.1 to 1 µM.

`CC(=O)N1CCc2nc(N3CCC(Oc4ccc(F)cc4F)CC3)c(C3CCCOC3)nc2C1` (stereo not drawn) [Compound 237, 1-{2-[4-(2,4-difluorophenoxy)piperidin-1-yl]-3-(oxan-3-yl)-5H,6H,7H,8H-pyrido[3,4-b]pyrazin-6-yl}ethan-1-one] gave an IC50 [1, 4] of 1 to 30 µM and an IC50 [2, 5] of 1 to 30 µM.

For `Cn1cc(-c2nc3cnccc3nc2N2CCC(Cc3ccc(F)cc3F)CC2)cn1` [Compound 368, 4-[(2,4-difluorophenyl)methyl]-1-[3-(1-methyl-1H-pyrazol-4-yl)pyrido[3,4-b]pyrazin-2-yl]piperidine], the IC50 ([1]; procedure of Example 24) was < 0.1 µM and the IC50 ([2]; procedure of Example 24) was 0.1 to 1 µM.

`Cn1cc(-c2nc3cncc(Cl)c3nc2N2CCC(Oc3ccc(F)cc3F)CC2)cn1` [Compound 411, 1-[8-chloro-3-(1-methyl-1H-pyrazol-4-yl)pyrido[3,4-b]pyrazin-2-yl]-4-(2,4-difluorophenoxy)piperidine] was tested, and the IC50 [1, 4] was 1 to 30 µM and the IC50 [2, 5] was 1 to 30 µM.

Compound `Cn1cc(-c2nc3cnc([C@](C)(O)CO)cc3nc2N2CCC(Oc3ccc(F)cc3F)CC2)cn1` (single isomer, unassigned) [Compound 565] has an IC50 [1, 6] of 1 to 30 µM and an IC50 [2, 7] of 1 to 30 µM.

With `CC(=O)N1CCc2nc(N3CCC(Oc4ccccc4)C3)c(-c3cnn(C)c3)nc2C1` (stereo not drawn) [Compound 418, 1-[3-(1-methyl-1H-pyrazol-4-yl)-2-(3-phenoxypyrrolidin-1-yl)-5H,6H,7H,8H-pyrido[3,4-b]pyrazin-6-yl]ethan-1-one] the IC50 [1, 4] was 1 to 30 µM and the IC50 [2, 5] was 1 to 30 µM.

In the case of `CC(=O)N1CCc2nc(N3CCC(C(F)c4ccc(F)cc4F)CC3)c(-c3cnn(C)c3)nc2C1` (stereo not drawn) [Compound 557, 1-(2-{4-[(2,4-difluorophenyl)fluoromethyl]-1-piperidyl}-3-(1-methyl-4-pyrazolyl)-5,6,7,8-tetrahydro-1,4,6-triaza-6-naphthyl)-1-ethanone], the IC50 [1, 6] is reported as < 0.1 µM and the IC50 [2, 7] is reported as < 0.1 µM.

Work on `CC(C)(C)OC(=O)N1CC(C(=O)N2CCc3nc(N4CCC(Oc5ccc(F)cc5F)CC4)c(-c4cnn(C5CCCCO5)c4)nc3C2)C1` (stereo not drawn) [Compound 152, tert-butyl 3-{2-[4-(2,4-difluorophenoxy)piperidin-1-yl]-3-[1-(oxan-2-yl)-1H-pyrazol-4-yl]-5H,6H,7H,8H-pyrido[3,4-b]pyrazine-6-carbonyl}azetidine-1-carboxylate] yielded an IC50 [1, 4] of 1 to 30 µM and an IC50 [2, 5] of 1 to 30 µM.

In the case of `CC(=O)N1CCc2nc(N3CCC(Oc4c(F)cc(F)cc4F)CC3)c(-c3cnn(C)c3)nc2C1` [Compound 428, 1-[3-(1-methyl-1H-pyrazol-4-yl)-2-[4-(2,4,6-trifluorophenoxy)piperidin-1-yl]-5H,6H,7H,8H-pyrido[3,4-b]pyrazin-6-yl]ethan-1-one], the IC50 [1, 4] is reported as 0.1 to 1 µM and the IC50 [2, 5] is reported as 1 to 30 µM.

In the case of `Cn1cc(-c2nc3cc(C(O)C(C)(C)O)ncc3nc2N2CCC(Oc3ccc(F)cc3F)CC2)cn1` (single isomer, unassigned) [Compound 562], the IC50 [1, 6] is reported as < 0.1 µM and the IC50 [2, 7] is reported as 0.1 to 1 µM.

For `CC(=O)N1CCc2nc(N3CCC(Oc4ccc(F)cc4F)CC3)c(-c3cncc(Cl)n3)nc2C1` [Compound 243], the IC50 [1, 4] was 1 to 30 µM and the IC50 [2, 5] was 1 to 30 µM.

Compound `CC(=O)N1CCc2nc(N3CCC(Oc4ccc(F)cc4F)CC3)c(-c3ccnc(C)n3)nc2C1` [Compound 435, 1-{2-[4-(2,4-difluorophenoxy)piperidin-1-yl]-3-(2-methylpyrimidin-4-yl)-5H,6H,7H,8H-pyrido[3,4-b]pyrazin-6-yl}ethan-1-one] has an IC50 [1, 4] of 0.1 to 1 µM and an IC50 [2, 5] of 1 to 30 µM.

For `CC(=O)N1CCc2nc(N3CCN(Cc4ccccc4F)CC3)c(-c3cnn(C)c3)nc2C1` [Compound 252, 1-(2-{4-[(2-fluorophenyl)methyl]piperazin-1-yl}-3-(1-methyl-1H-pyrazol-4-yl)-5H,6H,7H,8H-pyrido[3,4-b]pyrazin-6-yl)ethan-1-one], the IC50 [1, 4] was 0.1 to 1 µM and the IC50 [2, 5] was 1 to 30 µM.

In the case of `Cn1cc(-c2nc3cnc(CO)cc3nc2N2CCN(Cc3ccc(F)cc3F)CC2)cn1` [Compound 194, (2-{4-[(2,4-difluorophenyl)methyl]piperazin-1-yl}-3-(1-methyl-1H-pyrazol-4-yl)pyrido[3,4-b]pyrazin-7-yl)methanol], the IC50 [1, 4] is reported as 0.1 to 1 µM and the IC50 [2, 5] is reported as 1 to 30 µM.

`CC(=O)N1CCc2nc(N3CCC(Oc4ccc(F)cc4F)CC3)c(-c3ncn[nH]3)nc2C1` [Compound 1, 1-{2-[4-(2,4-difluorophenoxy)piperidin-1-yl]-3-(1H-1,2,4-triazol-5-yl)-5H,6H,7H,8H-pyrido[3,4-b]pyrazin-6-yl}ethan-1-one] showed an IC50 [1, 3] of 1 to 30 µM and an IC50 [2, 3] of 0.1 to 1 µM.

For `COc1ccc(CN2CCN(c3nc4c(nc3-c3cnn(C)c3)CN(C(C)=O)CC4)CC2)c(OC)c1` [Compound 322, 1-(2-{4-[(2,4-dimethoxyphenyl)methyl]piperazin-1-yl}-3-(1-methyl-1H-pyrazol-4-yl)-5H,6H,7H,8H-pyrido[3,4-b]pyrazin-6-yl)ethan-1-one], the IC50 ([1]; procedure of Example 24) was ≥ 30 µM and the IC50 ([2]; procedure of Example 24) was 1 to 30 µM.

Compound `COc1cncc(-c2nc3c(nc2N2CCC(Oc4ccc(F)cc4F)CC2)CCN(C(C)=O)C3)c1` [Compound 38, 1-{2-[4-(2,4-difluorophenoxy)piperidin-1-yl]-3-(5-methoxypyridin-3-yl)-5H,6H,7H,8H-pyrido[3,4-b]pyrazin-6-yl}ethan-1-one] has an IC50 [1, 3] of 0.1 to 1 µM and an IC50 [2, 3] of 1 to 30 µM.

`CC(=O)N1CCc2nc(N3CCC(Oc4ccc(F)cc4F)CC3)c(-c3cnn([C@@H](C)C#N)c3)nc2C1` (single isomer, unassigned) [Compound 271] gave an IC50 ([1]; procedure of Example 24) of 0.1 to 1 µM and an IC50 ([2]; procedure of Example 24) of 1 to 30 µM.

`CC(C)(O)[C@H](O)c1cc2nc(N3CCN(Cc4ccccc4F)CC3)c(-c3cnn(CF)c3)nc2cn1` (single isomer, unassigned) [Compound 648] was tested, and the IC50 ([1]; procedure of Example 24) was 0.1 to 1 µM and the IC50 ([2]; procedure of Example 24) was 1 to 30 µM.

For `CC(=O)N1CCc2nc(N3CCC(Oc4c(F)ccc(F)c4F)CC3)c(-c3cnn(C)c3)nc2C1` [Compound 455, 1-[3-(1-methyl-1H-pyrazol-4-yl)-2-[4-(2,3,6-trifluorophenoxy)piperidin-1-yl]-5H,6H,7H,8H-pyrido[3,4-b]pyrazin-6-yl]ethan-1-one], the IC50 [1, 4] was 1 to 30 µM and the IC50 [2, 5] was 1 to 30 µM.

`COCCn1cc(-c2nc3c(nc2N2CCC(Oc4ccc(F)cc4F)CC2)CCN(C(C)=O)C3)cn1` [Compound 74, 1-{2-[4-(2,4-difluorophenoxy)piperidin-1-yl]-3-[1-(2-methoxyethyl)-1H-pyrazol-4-yl]-5H,6H,7H,8H-pyrido[3,4-b]pyrazin-6-yl}ethan-1-one] was tested, and the IC50 [1, 4] was 0.1 to 1 µM and the IC50 [2, 5] was 1 to 30 µM.

In the case of `CC(=O)N1CCc2nc(N3CCC(O)(Cc4ccc(F)cc4F)CC3)c(-c3cnn(C)c3)nc2C1` [Compound 699, 1-(2-(4-(2,4-difluorobenzyl)-4-hydroxypiperidin-1-yl)-3-(1-methyl-1H-pyrazol-4-yl)-7,8-dihydropyrido[3,4-b]pyrazin-6(5H)-yl)ethan-1-one], the IC50 ([1]; procedure of Example 24) is reported as 0.1 to 1 µM and the IC50 ([2]; procedure of Example 24) is reported as 1 to 30 µM.

For `CC(=O)N1CCc2nc(N3CCC(Oc4ccc(F)cc4F)CC3)c(-c3ccn(C)c(=O)c3)nc2C1` [Compound 78, 4-{6-acetyl-2-[4-(2,4-difluorophenoxy)piperidin-1-yl]-5H,6H,7H,8H-pyrido[3,4-b]pyrazin-3-yl}-1-methyl-1,2-dihydropyridin-2-one], the IC50 [1, 4] was 1 to 30 µM and the IC50 [2, 5] was 1 to 30 µM.

`Cn1cc(-c2nc3cnc(C(O)C(C)(C)O)cc3nc2N2CCC(Oc3ccc(F)cc3F)CC2)cn1` (stereo not drawn) [Compound 263, 1-(2-(4-(2,4-difluorophenoxy)piperidin-1-yl)-3-(1-methyl-1H-pyrazol-4-yl)pyrido[3,4-b]pyrazin-7-yl)-2-methylpropane-1,2-diol] was tested, and the IC50 [1, 4] was 0.1 to 1 µM and the IC50 [2, 5] was 1 to 30 µM.

Source: US20260042755A1, “GPR6 INVERSE AGONISTS” (MapLight Therapeutics, Inc., priority 2022, published 2026)
